Measurements as given in patent US5137906A, “Treatment of central nervous system disorders with benzimidazole angiotensin-II receptor antagonists” (E. I. Du Pont de Nemours and Company, priority 1990, dated 1992).
“Also recorded” adds a separate entry of the source.

Key:
[1] = test system: ACh in the striatum and hypothalamus; settings: in words; acute or repeated administration; cited from earlier work
[2] = test system: scopolamine-induced impairment of eight arm radial maze performance; settings: in words; 3 mg/kg IP; cited from earlier work
[3] = test system: scopolamine-induced amnesia of a PA response; settings: in words; 1, 3 and 10 mg/kg PO three times per day; cited from earlier work
uphill avoidance = settings: in words; 30 mg/kg PO, acute; cited from earlier work
[4] = target: AII receptor subtype-2 (AII-2); settings: cited from earlier work
[5] = test system: renin-induced disruption of passive avoidance retention; test: renin-disrupted passive avoidance retention; type: in vivo, male Sprague-Dawley rats; settings: for protection against / prevention of renin-induced amnesia: co-administered with renin IVT
Description: Experimentally naive male Sprague-Dawley rats 100 to 125 days old (Charles River Breeding Laboratories, Kingston, N.Y.), weighing between 175 to 200 gm were used. The animals were housed four per cage (45.0 L×20.0 H×26.0 W cm) with free access to food and water. They were maintained on a 12 h light/dark cycle (lights on 0600 h) and at a room temperature of 22°±1° C. with relative humidity of 50±10%.
The experimental sessions were conducted in a two-compartment passive avoidance box. One compartment, made of clear plastic with a perforated clear plastic floor, measured 21(L)×24.5(H)×17(W) cm and was illuminated with a 60 watt incandescent light bulb placed 36 cm above the floor. The other compartment, made of black plastic, measured 30.5 (L)×20.3 (H)×21.5 (W) cm with a floor made of 4 mm stainless steel rods spaced 1.2 cm apart. A grid floor shocker (Coulbourn Instruments) was connected to the steel rods and provided scrambled footshock. The two compartments were separated by a solenoid-operated slide door (Lafayette Instrument Co., Lafayette, Ind.). An electronic counter (Coulbourn Instruments), triggered by the opening or closing of the slide door, recorded acquisition and retention latencies (latencies were defined as the time it took an animal to enter the dark compartment).
Passive avoidance training began by placing the rat into the clear compartment of the two-compartment passive avoidance box. Following a 10 sec delay, the slide door for the dark compartment was raised. Once the rat moved completely into the dark compartment (all four paws on the shock grid floor) the slide door was lowered, and after a 10 sec. delay, a 1.0 mA shock was applied to the grid floor for three sec. A second three s shock was delivered after an additional 10 sec delay. The rats were immediately removed from the dark compartment and returned to their home cage. A retention test was given 24 h later. It proceeded in the same manner as the training session except that no shock was applied to the grid floor when the rats were provided access to the dark compartment for a maximum of 300 sec.
Doses are expressed as the free base weight of each compound.

[6] = target: AII receptor subtype-1 (AII-1); settings: cited from earlier work
[7] = test system: AII binding sites in the brain; test: binding of AII antagonists to sections of brain slices; settings: in words
[8] = test system: passive avoidance (PA) response; settings: in words; injected into dorsal neostriatum; cited from earlier work
[9] = test system: light/dark habituation performance; settings: in words; subchronic treatment; cited from earlier work
avoidance learning = settings: in words, cited from earlier work
[10] = test system: anticholinergic scopolamine-induced disruption of performance; settings: in words; daily treatment; cited from earlier work
[11] = test system: release of ACh in entorhinal cortex from rat brain; settings: in words; cited from earlier work
[12] = test system: AII in cerebrospinal fluid (CSF); settings: after renin into lateral ventricle; increased from 40; cited from earlier work
[13] = compound 10 μg/5 μL IVT + renin 1.0 μg/5 μL IVT
[14] = compound 30 μg/5 μL IVT + renin 1.0 μg/5 μL IVT
[15] = compound 100 μg/5 μL IVT + renin 1.0 μg/5 μL IVT

CCOC(=O)C(CCc1ccccc1)NC(C)C(=O)N1CC2(CC3CCC2CC3)CC1C(=O)O (stereo not drawn) [Hoe 288]
change in ACh in the striatum and hypothalamus [1]: significant decrease in ACh in the striatum and hypothalamus
effect on muscarinic receptor blockade impairment of performance [2]: partially antagonized the effects of muscarinic receptor blockade on performance
effect on scopolamine-induced PA amnesia [3]: partially reversed the amnesia
performance during retention testing, uphill avoidance (uphill avoidance): improved performance during retention testing

Cc1cc(Cn2cnc3c2CC(C(=O)O)N(C(=O)C(c2ccccc2)c2ccccc2)C3)ccc1N (stereo not drawn) [EXP655, 1-(4-amino-3-methylphenyl)methyl-5-diphenylacetyl-4,5,6,7-tetrahydro-1H-imidazo[4,5-c]pyridine-6-carboxylic acid]
IC50 ([4]; AII-2 site, rat adrenal cortex, Chiu et al. 1989, read-out: inhibitory constant IC50 value): ~0.1 µM
Median Retention Latency ([5]; compound 0.1 μg/5 μL IVT + renin 1.0 μg/5 μL IVT): 19 s
Median Retention Latency ([5]; compound 0.3 μg/5 μL IVT + renin 1.0 μg/5 μL IVT): 22 s
Median Retention Latency ([5]; compound 1.0 μg/5 μL IVT + renin 1.0 μg/5 μL IVT): 15 s
Median Retention Latency ([5]; compound 3.0 μg/5 μL IVT + renin 1.0 μg/5 μL IVT): 29 s
Median Retention Latency [5, 13]: 15 s
Median Retention Latency [5, 14]: 67 s
Median Retention Latency [5, 15]: 16 s
protection against / prevention of renin-induced amnesia ([5]; in words): much less effective in preventing the amnesia
IC50 ([6]; AII-1 site, rat adrenal cortex, Chiu et al. 1989, read-out: inhibitory constant IC50 value): ~300 µM
affinity/specificity for the AII-1 site ([6]; in words, rat adrenal cortex): very low affinity
sensitivity of the majority of AII binding sites in the brain (AII-2 receptors) [7]: EXP655-sensitive

NC(=O)[C@@H]1CCCN1C(=O)[C@H](Cc1cnc[nH]1)NC(=O)[C@@H]1CCC(=O)N1 [thyrotropin releasing hormone]
effect on retention of a PA response [8]: no effect

C[C@H](CS)C(=O)N1CCC[C@H]1C(=O)O [captopril]
rate of acquisition of light/dark habituation performance [9]: increased the rate of acquisition
effect on renin-induced avoidance disruption (avoidance learning; IVT prior to renin injection): prevented the renin-induced avoidance disruption
prevention of renin-induced amnesia in PA task by IVT captopril ([5]; in words, own laboratory, captopril IVT): prevented
effect on scopolamine-induced disruption of performance [10]: prevented

CCCc1nc(C(F)(F)F)c(CO)n1Cc1ccc(-c2ccccc2-c2nnn[nH]2)cc1 [Compound D, 2-n-propyl-5-hydroxymethyl-1-[(2'-(1H-tetrazol-5-yl)biphenyl-4-yl)methyl]-4-trifluoromethylimidazole]
Median Retention Latency [5, 14]: 242 s
Median Retention Latency [5, 15]: 10 s
protection against / prevention of renin-induced amnesia ([5]; in words): protected against the amnesia

lysine-8-vasopressin
effect on retention of a PA response [8]: no effect

O[C@H](CS)[C@H](O)CS (racemic) [DTT, dithiothreitol]
inactivation of AII-2 receptor by DTT ([4]; in words): resistant
inactivation of AII-1 receptor by DTT ([6]; in words): particularly sensitive to inactivation
sensitivity of AII binding sites in the brain, minor clusters (AII-1 receptors) ([7]; AII-1): DTT-sensitive
sensitivity of the majority of AII binding sites in the brain (AII-2 receptors) [7]: DTT-sensitive

[1-sarcosine, 8-threonine]angiotensin II
antagonism of AII effect on ACh release [11]: antagonized

CCCc1nc(C(F)(F)F)c(C(=O)O)n1Cc1ccc(-c2ccccc2-c2nnn[nH]2)cc1 [Compound C, 2-n-propyl-1-[(2'-(1H-tetrazol-5-yl)biphenyl-4-yl)methyl]-4-trifluoromethylimidazole-5-carboxylic acid]
Median Retention Latency [5, 13]: 264 s
Median Retention Latency [5, 14]: 300 s
Median Retention Latency [5, 15]: 34.5 s
protection against / prevention of renin-induced amnesia ([5]; in words): protected against the amnesia

Angiotensin II (DRVYIHPF; Angiotensin-2; UniProt P01019 25-32, looked up) [AII]
effect on basal levels of ACh release [11]: without effects on basal levels
effect on potassium-stimulated release of ACh [11]: reduced potassium-stimulated release of ACh
effect on retention of a PA response [8]: disruption in retention of a PA response

B1: renin: Renin (Sigma Chemicals), a stimulator of endogenous AII biosynthesis (protein, UniProt P00797 67-406, looked up)
Renin: LTLGNTTSSVILTNYMDTQYYGEIGIGTPPQTFKVVFDTGSSNVWVPSSKCSRLYTACVYHKLFDASDSSSYKHNGTELTLRYSTGTVSGFLSQDIITVGGITVTQMFGEVTEMPALPFMLAEFDGVVGMGFIEQAIGRVTPIFDNIISQGVLKEDVFSFYYNRDSENSQSLGGQIVLGGSDPQHYEGNFHYINLIKTGVWQIQMKGVSVGSSTLLCEDGCLALVDTGASYISGSTSSIEKLMEALGAKKRLFDYVVKCNEGPTLPDISFHLGGKEYTLTSADYVFQESYSSKKLCTLAIHAMDIPPPTGPTWALGATFIRKFYTEFDRRNNRIGFALAR
AII in cerebrospinal fluid [12]: about 5000 fmol per mL
effect on avoidance learning (avoidance learning; renin into lateral ventricle (IVT)): disruption of avoidance learning
Median Retention Latency ([5]; Table 1, renin 0.1 μg/5 μL IVT): 254 s
Median Retention Latency ([5]; Table 1, renin 0.5 μg/5 μL IVT): 117 s
Median Retention Latency ([5]; Table 1, renin 1.0 μg/5 μL IVT): 27 s
Median Retention Latency ([5]; Table 1, renin 3.0 μg/5 μL IVT): 56.5 s
Median Retention Latency ([5]; Table 1, renin 5.0 μg/5 μL IVT): 17 s
Median Retention Latency ([5]; Table 2, renin 1.0 μg/5 μL IVT, Compound C 0 (renin-alone group)): 48 s
Median Retention Latency ([5]; Table 3, renin 1.0 μg/5 μL IVT, Compound D 0 (renin-alone group)): 32 s
Median Retention Latency ([5]; Table 4, renin 1.0 μg/5 μL IVT, EXP655 0 (renin-alone group)): 15.5 s
memory deficit / amnesia in PA task ([5]; in words, renin IVT): produces a reliable memory deficit in rats; also recorded: dose-related amnesia
